Legend:
[1] = biological target: T1, alcohol dehydrogenase (ADH) (Saccharomyces cerevisiae, UniProt P00330); experiment: NADH formation at […] nm; assay type: biochemical
T1 construct: gene ADH1
T1 sequence (P00330 2-348): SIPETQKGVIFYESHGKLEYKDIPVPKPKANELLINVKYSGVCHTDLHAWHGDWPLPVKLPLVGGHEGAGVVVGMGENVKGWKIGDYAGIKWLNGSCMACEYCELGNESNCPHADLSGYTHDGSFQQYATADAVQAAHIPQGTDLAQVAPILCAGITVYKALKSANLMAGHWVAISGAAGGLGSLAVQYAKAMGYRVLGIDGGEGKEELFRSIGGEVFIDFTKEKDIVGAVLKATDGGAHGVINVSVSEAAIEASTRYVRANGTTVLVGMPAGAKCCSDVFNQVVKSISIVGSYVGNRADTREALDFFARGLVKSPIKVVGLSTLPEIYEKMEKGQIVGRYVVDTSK

[2] = biological target: T2, human prostacyclin synthase (PGIS), microsomal, partially purified (Homo sapiens, UniProt Q16647); experiment: 3-nitrotyrosine formation, Western blot and HPLC after pronase; assay type: biochemical
T2 construct: gene PTGIS; overexpressed in Sf21 insect cells
T2 sequence (Q16647 1-500): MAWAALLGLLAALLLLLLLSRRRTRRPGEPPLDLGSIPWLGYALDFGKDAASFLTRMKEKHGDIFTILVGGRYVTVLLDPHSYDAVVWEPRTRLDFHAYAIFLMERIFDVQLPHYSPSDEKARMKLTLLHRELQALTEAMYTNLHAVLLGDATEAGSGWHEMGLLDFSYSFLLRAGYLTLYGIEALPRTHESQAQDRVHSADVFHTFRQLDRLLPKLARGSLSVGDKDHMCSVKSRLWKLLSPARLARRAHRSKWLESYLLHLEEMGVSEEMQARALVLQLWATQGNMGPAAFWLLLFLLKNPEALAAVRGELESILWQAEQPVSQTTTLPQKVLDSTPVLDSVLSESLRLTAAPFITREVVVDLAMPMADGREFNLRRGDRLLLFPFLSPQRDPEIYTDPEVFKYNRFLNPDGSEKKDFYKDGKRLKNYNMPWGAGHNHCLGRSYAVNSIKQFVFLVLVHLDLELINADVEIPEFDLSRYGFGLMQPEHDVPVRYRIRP
From the text: 3-nitrotyrosine formation, Western blot and HPLC after pronase on human prostacyclin synthase (PGIS), microsomal, partially purified | peroxynitrite-dependent nitration of an over-expressed and partially purified human prostacyclin synthase

Structure (SMILES)	inhibition at 50 µM [1] [%]	EC50 [2] [µM]
S=c1[nH]c(=S)c2[nH]cnc2[nH]1 [2,6-Dithiopurine]	20	–
S=c1cc[nH]c(=S)[nH]1 [2,6-Dithiopyrimidine]	20	–
O=NOO [peroxynitrite]	–	5

Reference: paper PMC3645702, “Protein Tyrosine Nitration and Thiol Oxidation by Peroxynitrite—Strategies to Prevent These Oxidative Modifications” (International Journal of Molecular Sciences, 2013)
